Source: patent US8541363B2, “Pyruvamide compounds as inhibitors of dust mite group 1 peptidase allergen and their use” (St George's Hosptial Medical School, priority 2010, dated 2013)
Read-outs that look alike come from different tables or passages of the source.

Target: Der p 1 (Dermatophagoides pteronyssinus (European house dust mite), UniProt P08176)
Assay: Der p 1 enzyme activity assay (FRET fluorogenic substrate)
Assay type: biochemical
Method: The fluorogenic substrate used for measuring Der p 1 proteolytic activity was 2-aminobenzoylvalylalanylnorleucylseryl-(3-nitro)tyrosinyl aspartamide.
Test compounds were dissolved in dry DMSO and maintained at 4° C. as stock solutions until being diluted for use in screening assays. Final concentration of DMSO in all enzymatic assays was 0.5% v/v.
Reaction mixtures were assembled in a 96-well plate format (Perkin Elmer Optiplate 96F, Perkin Elmer LAS, Seer Green, Buckinghamshire, UK) using a Perkin Elmer MultiPROBE II Plus HTS EX robot with Gripper attachment. […] Dithiothreitol (DTT, 10 μL/well, 1 mM final concentration) was then added together with 10 μL of Der p 1 dissolved at 2.5 μg/mL in reaction buffer supplemented with 1 mM DTT. […] The plate was immediately transferred to a fluorescence plate reader (Perkin Elmer Fusion Alpha-FP or Perkin Elmer Envision) equipped with a temperature-controlled carrier set at 30° C. and the reaction followed by excitation/emission at 330/420 nm.
Inhibitory activity was analysed from progress curves of reactions in the presence of a range of inhibitor concentrations.
Initial velocity in each well was converted to fractional activity by Equation 1: Fractional activity=(Initial rate at inhibitor concentration[X]/Initial rate at inhibitor concentration zero)*100 Equation 1:
Then, IC50 was determined by fitting the data of fractional activity and inhibitor concentration to a 4-parameter logistic curve, using Equation 2: V=Vmin+[Vmax−Vmin]/[1+(X/IC50)Hillslope] […] Biological Data—Der p 1 Enzyme Assay

[1] = threshold stated in text, read-out: Der p 1 IC50

Chain of Der p 1 (P08176 99-320): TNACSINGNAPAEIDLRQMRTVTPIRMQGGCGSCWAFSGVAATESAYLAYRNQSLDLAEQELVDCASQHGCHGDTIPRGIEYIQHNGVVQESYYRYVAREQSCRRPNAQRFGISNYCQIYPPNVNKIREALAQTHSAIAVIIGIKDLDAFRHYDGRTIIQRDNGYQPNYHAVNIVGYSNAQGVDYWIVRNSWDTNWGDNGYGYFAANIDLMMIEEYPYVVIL

IC50 [1]	SMILES	other results
–	CC(C)[C@H](NC(=O)[C@H](C)NC(=O)[C@H](Cc1ccccc1)NC(=O)c1ccccc1)C(=O)C(=O)NCC(=O)N1CCN(C)CC1 [PVA-047]	IC50 (Der p 1 IC50): < 20 nM
< 200 nM	CC(C)[C@H](NC(=O)[C@H](C)NC(=O)[C@@H](NC(=O)c1cnccn1)C(C)(C)C)C(=O)C(=O)NCc1ccccc1 [PVA-058]	–
< 2000 nM	CCCCC(NC(=O)[C@H](C)NC(=O)[C@H](Cc1ccccc1)NC(=O)c1ccccc1)C(=O)C(=O)N1CCCC1 (stereo partly drawn) [PVA-006]	–
< 200 nM	CC(C)[C@H](NC(=O)[C@H](C)NC(=O)[C@@H](Cc1ccc2ccccc2c1)NC(=O)c1ccccc1)C(=O)C(=O)NCc1ccccc1 [PVA-032]	–
< 200 nM	CC(=O)Nc1ccc(C(=O)N[C@H](C(=O)N[C@@H](C)C(=O)N[C@H](C(=O)C(=O)NC2CCCCC2)C(C)C)C(C)(C)C)cn1 [PVA-061]	–
< 200 nM	CC(C)C(NC(=O)[C@H](C)NC(=O)[C@H](Cc1ccccc1)NC(=O)c1ccccc1)C(=O)C(=O)NCc1cccnc1 (stereo partly drawn) [PVA-024]	–
< 20 nM	CC(C)[C@H](NC(=O)[C@H](C)NC(=O)[C@@H](NC(=O)C1CCN(C)CC1)C(C)(C)C)C(=O)C(=O)NCc1ccccc1 [PVA-216]	–
< 20 nM	CC(C)[C@H](NC(=O)[C@H](C)NC(=O)[C@@H](NC(=O)c1cccc2ccccc12)C(C)(C)C)C(=O)C(=O)NCc1ccc(S(N)(=O)=O)cc1 [PVA-215]	–
–	CC(C)[C@H](NC(=O)[C@H](C)NC(=O)[C@@H](NC(=O)c1ccccc1)C12CC3CC(CC(C3)C1)C2)C(=O)C(=O)NCC(=O)N1CCN(C)CC1 [PVA-146]	IC50 (Der p 1 IC50): < 20 nM
–	CC(C)[C@H](NC(=O)[C@H](C)NC(=O)[C@@H](NC(=O)c1ccccc1)C(C)(C)C)C(=O)C(=O)NC1CN2CCC1CC2 (stereo partly drawn) [PVA-119]	IC50 (Der p 1 IC50): < 200 nM
< 20 nM	CC(C)[C@H](NC(=O)[C@H](C)NC(=O)[C@@H](NC(=O)c1ccnc2ccccc12)C(C)(C)C)C(=O)C(=O)NC1CC1 [PVA-144]	–
< 20 nM	CC(C)[C@H](NC(=O)[C@H](C)NC(=O)[C@@H](NC(=O)c1ccnc2ccccc12)C(C)(C)C)C(=O)C(N)=O [PVA-156]	–
< 20 nM	CC(C)[C@H](NC(=O)[C@H](C)NC(=O)[C@@H](N1Cc2ccccc2C1=O)C(C)(C)C)C(=O)C(=O)NCc1ccc(CN(C)C)cc1 [PVA-210]	–
< 200 nM	CC(C)[C@H](NC(=O)[C@H](C)NC(=O)[C@@H](NC(=O)c1ccc(C(=O)O)cc1)C(C)(C)C)C(=O)C(=O)NCC(=O)N1CCN(C)CC1 [PVA-131]	–
< 200 nM	CC(C)C[C@H](NC(=O)[C@H](C)NC(=O)[C@H](Cc1ccccc1)NC(=O)c1ccccc1)C(=O)C(=O)NC(C)C [PVA-004]	–
< 20 nM	CC(C)[C@H](NC(=O)[C@H](C)NC(=O)[C@H](Cc1ccccc1)NC(=O)c1ccncc1)C(=O)C(=O)NCc1cccc(C(N)=O)c1 [PVA-169]	–
< 20 nM	CC(C)[C@H](NC(=O)[C@H](C)NC(=O)[C@@H](N1Cc2ccccc2C1=O)C(C)(C)C)C(=O)C(=O)NCc1ccccc1 [PVA-129]	–
< 2000 nM	CC(C)C(NC(=O)[C@H](C)NC(=O)[C@H](Cc1ccccc1)NC(=O)c1ccccc1)C(=O)C(=O)NCCN1CCCC1 (stereo partly drawn) [PVA-025]	–
< 200 nM	CC(C)[C@H](NC(=O)[C@H](C)NC(=O)[C@@H](NC(=O)c1ccccc1)C(C)(C)c1ccccc1)C(=O)C(=O)NCc1ccccc1 [PVA-121]	–
< 200 nM	Cc1n[nH]c(C)c1C(=O)N[C@H](C(=O)N[C@@H](C)C(=O)N[C@H](C(=O)C(=O)NCc1ccccc1)C(C)C)C(C)(C)C [PVA-115]	–
–	CC(C)[C@H](NC(=O)[C@H](C)NC(=O)[C@@H](NC(=O)c1ccccc1)C(C)(C)C)C(=O)C(=O)NCC(=O)N1CCN(C)CC1 [PVA-055]	IC50 (Der p 1 IC50): < 20 nM
< 200 nM	Cc1cc(C(=O)N[C@H](C(=O)N[C@@H](C)C(=O)N[C@H](C(=O)C(=O)NCc2ccccc2)C(C)C)C(C)(C)C)[nH]n1 [PVA-107]	–
< 200 nM	CC(C)NC(=O)C(=O)[C@@H](NC(=O)[C@H](C)NC(=O)[C@H](Cc1ccccc1)NC(=O)c1ccccc1)C(C)C [PVA-015]	–
< 20 nM	CC(C)[C@H](NC(=O)[C@H](C)NC(=O)[C@@H](NC(=O)c1cccc2ncccc12)C(C)(C)C)C(=O)C(=O)NCc1ccccc1 [PVA-150]	–
< 20 nM	CC(C)[C@H](NC(=O)[C@H](C)NC(=O)[C@@H](NC(=O)c1ccccc1C(=O)O)C(C)(C)C)C(=O)C(=O)NCC(=O)N1CCN(C)CC1 [PVA-136]	–

IC50 [1]	SMILES	other results
< 20 nM	CC(C)[C@H](NC(=O)[C@H](C)NC(=O)[C@@H](NC(=O)c1ccnc2ccccc12)C(C)(C)C)C(=O)C(=O)NCc1ccc(S(N)(=O)=O)cc1 [PVA-185]	–
< 200 nM	CC(C)[C@H](NC(=O)[C@H](C)NC(=O)[C@@H](NC(=O)c1cccc(N2CCN(C)CC2)c1)C(C)(C)C)C(=O)C(=O)NCc1ccccc1 [PVA-173]	–
< 200 nM	CC(C)[C@H](NC(=O)[C@H](C)NC(=O)[C@@H](NC(=O)c1ccccc1)C(C)(C)c1ccccc1)C(=O)C(=O)NC1CC1 [PVA-142]	–
< 20 nM	CC(C)[C@H](NC(=O)[C@H](C)NC(=O)[C@@H](NC(=O)c1cccc(C(=O)O)c1)C(C)(C)C)C(=O)C(=O)NCC(=O)N1CCN(C)CC1 [PVA-130]	–
< 200 nM	CC(C)[C@H](NC(=O)[C@H](C)NC(=O)[C@@H](Cc1cccc(F)c1)NC(=O)c1ccccc1)C(=O)C(=O)NC1CCCCC1 [PVA-031]	–
< 200 nM	CC(C)[C@H](NC(=O)[C@H](C)NC(=O)[C@H](Cc1ccccc1)NC(=O)c1ccccc1)C(=O)C(=O)NC1CCN(C)CC1 [PVA-083]	–
< 200 nM	CC(C)[C@H](NC(=O)[C@H](C)NC(=O)[C@@H](NC(=O)c1ccc2ncsc2c1)C(C)(C)C)C(=O)C(=O)NCc1ccccc1 [PVA-057]	–
< 200 nM	CC(C)[C@H](NC(=O)[C@H](C)NC(=O)C1CCCN1C(=O)c1ccccc1)C(=O)C(=O)NCC(=O)N1CCN(C)CC1 (stereo partly drawn) [PVA-145]	–
< 20 nM	CC(C)C[C@H](NC(=O)[C@H](C)NC(=O)[C@H](Cc1ccccc1)NC(=O)c1ccccc1)C(=O)C(=O)NCc1ccccc1 [PVA-005]	–
< 200 nM	CC(C)[C@H](NC(=O)[C@H](C)NC(=O)[C@@H](NC(=O)C1CCN(C)CC1)C(C)(C)C)C(=O)C(=O)NC1CCCCC1 [PVA-089]	–
< 200 nM	CC(C)[C@H](NC(=O)[C@H](C)NC(=O)[C@@H]1Cc2ccccc2CN1C(=O)c1ccccc1)C(=O)C(=O)NC1CCCCC1 [PVA-100]	–
< 200 nM	CC(C)[C@H](NC(=O)[C@H](C)NC(=O)[C@H](Cc1ccccc1)NC(=O)c1ccccc1)C(=O)C(=O)NCCN1CCN(C)CC1 [PVA-098]	–
< 200 nM	CC(C)[C@H](NC(=O)[C@H](C)NC(=O)[C@H](Cc1ccccc1)NC(=O)c1ccc2ncsc2c1)C(=O)C(=O)NC1CCCCC1 [PVA-050]	–
< 20 nM	CC(C)[C@H](NC(=O)[C@H](C)NC(=O)[C@@H](N1Cc2ccccc2C1=O)C(C)(C)C)C(=O)C(=O)NCc1ccc(N2CCN(C)CC2)cc1 [PVA-211]	–
< 20 nM	COc1ccc(CNC(=O)C(=O)[C@@H](NC(=O)[C@H](C)NC(=O)[C@H](Cc2ccccc2)NC(=O)c2ccccc2)C(C)C)cc1 [PVA-042]	–
< 2000 nM	CC(C)[C@H](NC(=O)[C@H](C)NC(=O)[C@H](NC(=O)c1ccccc1)C1Cc2ccccc2C1)C(=O)C(=O)NC1CCCCC1 [PVA-029]	–
< 200 nM	CC(C)[C@H](NC(=O)[C@H](C)NC(=O)[C@H](Cc1ccccc1)NC(=O)c1ccncc1)C(=O)C(=O)NCc1cccc(S(N)(=O)=O)c1 [PVA-171]	–
–	CC(C)[C@H](NC(=O)[C@H](C)NC(=O)[C@H](Cc1ccccc1)NC(=O)c1ccccc1)C(=O)C(=O)NCC(=O)N1CCOCC1 [PVA-068]	IC50 (Der p 1 IC50): < 20 nM
< 200 nM	CC(C)[C@H](NC(=O)[C@H](C)NC(=O)[C@@H](NC(=O)c1ccccc1)C(C)(C)C)C(=O)C(=O)NCc1ccnn1C [PVA-167]	–
< 200 nM	CC(C)[C@H](NC(=O)[C@H](C)NC(=O)[C@@H](NC(=O)c1ccccc1)C(C)(C)C)C(=O)C(=O)NCc1cccc(N2CCN(C)CC2)c1 [PVA-190]	–
< 200 nM	CC(C)[C@H](NC(=O)[C@H](C)NC(=O)[C@@H](Cc1ccc(F)cc1)NC(=O)c1ccccc1)C(=O)C(=O)NC1CCCCC1 [PVA-027]	–
< 200 nM	CC(=O)Nc1cc(C(=O)N[C@H](C(=O)N[C@@H](C)C(=O)N[C@H](C(=O)C(=O)NCc2ccccc2)C(C)C)C(C)(C)C)ccn1 [PVA-064]	–
< 200 nM	CC(C)[C@H](NC(=O)[C@H](C)NC(=O)[C@H](Cc1ccccc1)NC(=O)c1ccccc1)C(=O)C(=O)NC1Cc2ccccc2C1 [PVA-103]	–
< 200 nM	CC(C)[C@H](NC(=O)[C@H](C)NC(=O)[C@@H](NC(=O)c1ccc(OCc2nccn2C)cc1)C(C)(C)C)C(=O)C(=O)NC1CCCCC1 [PVA-077]	–
< 20 nM	CC(C)[C@H](NC(=O)[C@H](C)NC(=O)[C@@H](NC(=O)c1ccccc1)C(C)(C)C)C(=O)C(=O)NCc1cn[nH]c1 [PVA-158]	–

SMILES	IC50 [1]	other results
CCCC[C@H](NC(=O)[C@H](C)NC(=O)[C@@H](NC(=O)c1ccncc1)C(C)(C)C)C(=O)C(=O)NC1CCCCC1 [PVA-039]	< 20 nM	IC50 (Table 1, read-out: Der p 1 IC50): 6.3 nM
CNC(=O)c1ccc(CNC(=O)C(=O)[C@@H](NC(=O)[C@H](C)NC(=O)[C@@H](NC(=O)c2ccccc2)C(C)(C)C)C(C)C)cc1 [PVA-196]	< 20 nM	–
CC(C)[C@H](NC(=O)[C@H](C)NC(=O)[C@@H](NC(=O)c1ccccc1)C(C)(C)C)C(=O)C(=O)N[C@H](C)C(=O)N1CCN(C)CC1 [PVA-125]	< 200 nM	–
